Results taken from publication PMC4050187 (FEBS Open Bio, 2014).

Molecular target: T1, Cj0511His (Campylobacter jejuni, UniProt Q0PB04)
T1 sequence (Q0PB04 36-444): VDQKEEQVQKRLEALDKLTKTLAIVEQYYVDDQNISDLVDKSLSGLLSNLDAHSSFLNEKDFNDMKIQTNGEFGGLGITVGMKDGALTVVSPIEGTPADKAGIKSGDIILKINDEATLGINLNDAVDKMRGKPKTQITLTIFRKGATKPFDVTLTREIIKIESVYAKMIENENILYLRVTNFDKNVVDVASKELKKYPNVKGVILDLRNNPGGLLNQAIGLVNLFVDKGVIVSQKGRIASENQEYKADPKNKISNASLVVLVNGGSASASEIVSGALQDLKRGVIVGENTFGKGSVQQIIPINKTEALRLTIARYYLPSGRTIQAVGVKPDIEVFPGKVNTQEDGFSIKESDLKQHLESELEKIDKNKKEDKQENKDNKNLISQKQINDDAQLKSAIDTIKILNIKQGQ
Experiment: colorimetric protease screening kit, absorbance at […] nm
Assay type: biochemical
Settings: 1 mM inhibitor, 37 °C, 3 h, 0.25 μg protein in 50 μl

In the case of `NCCc1ccc(S(=O)(=O)F)cc1` [AEBSF], the “reduction in activity at 1 mM” value is reported as “reduction in activity in the presence of antipain, aprotin, AEBSF and PMSF inhibitors”.
